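Compound exposure: 48 hours, 5 concentrations, 96-well plates. At the GI50, growth is halved.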 Calls of active or inactive are those of the source. Cut-off read from the data, not from the text of the source: active = GI50 up to about 1.1 µM and inactive = higher.
Key:
Test in all cases: inhibition of tumour cell growth, NCI panel, 48 h
A549 = tested on: A549
ACHN = tested on: ACHN
DMS-114 = tested on: DMS-114
EKVX = tested on: EKVX
HCT-116 = tested on: HCT-116
HL-60 = tested on: HL-60
HOP-92 = tested on: HOP-92
HT-29 = tested on: HT-29
K562 = tested on: K562
KM-20L2 = tested on: KM-20L2
MOLT-4 = tested on: MOLT-4
Malme-3M = tested on: Malme-3M
OVCAR-3 = tested on: OVCAR-3
SF-268 = tested on: SF-268
UACC-62 = tested on: UACC-62
Hs-578T = tested on: Hs-578T
MDA-MB-231 = tested on: MDA-MB-231
MDA-MB-435 = tested on: MDA-MB-435
NCI/ADR-RES = tested on: NCI/ADR-RES
PC-3 = tested on: PC-3

| Compound | GI50 (A549) | GI50 (ACHN) | GI50 (DMS-114) | GI50 (EKVX) | GI50 (HCT-116) | GI50 (HL-60) | GI50 (HOP-92) | GI50 (HT-29) | GI50 (K562) | GI50 (KM-20L2) | GI50 (MOLT-4) | GI50 (Malme-3M) | GI50 (OVCAR-3) | GI50 (SF-268) | GI50 (UACC-62) | GI50 (Hs-578T) | GI50 (MDA-MB-231) | GI50 (MDA-MB-435) | GI50 (NCI/ADR-RES) | GI50 (PC-3) |
| --- | --- | --- | --- | --- | --- | --- | --- | --- | --- | --- | --- | --- | --- | --- | --- | --- | --- | --- | --- | --- |
| CN1CCc2c1nc(-c1cccnc1)c1c2N(C)CC1 | > 100 µM (inactive) | > 100 µM (inactive) | > 100 µM (inactive) | > 100 µM (inactive) | > 100 µM (inactive) | > 100 µM (inactive) | 88.5 µM (inactive) | 95.3 µM (inactive) | > 100 µM (inactive) | 97.1 µM (inactive) | > 100 µM (inactive) | > 100 µM (inactive) | 65.8 µM (inactive) | > 100 µM (inactive) | > 100 µM (inactive) |  |  |  |  |  |
| Cc1ccc2c(ccc(/C=C/c3ccc(O)c4ncccc34)[n+]2C)c1 | 15.1 µM (inactive) | 10 µM (inactive) | 0.489 µM (active) | 18.1 µM (inactive) | 3.87 µM (inactive) | 19.5 µM (inactive) | 14.7 µM (inactive) | 12.2 µM (inactive) | 3.11 µM (inactive) | 4.85 µM (inactive) | 1.75 µM (inactive) | 11.1 µM (inactive) | 0.817 µM (active) | 2.94 µM (inactive) | 8.04 µM (inactive) | > 100 µM (inactive) | > 33.2 µM (inactive) | > 30.4 µM (inactive) | > 49.5 µM (inactive) | > 25.3 µM (inactive) |
| CC(=O)C(CN(CC(C)C)CC(C)C)C(c1ccccc1)c1c(O)c2ccccc2oc1=O (stereo not given) | > 100 µM (inactive) | > 100 µM (inactive) | > 100 µM (inactive) | > 100 µM (inactive) | > 100 µM (inactive) | > 100 µM (inactive) | > 100 µM (inactive) | > 100 µM (inactive) | > 10 µM (inactive) | > 100 µM (inactive) | > 100 µM (inactive) | > 100 µM (inactive) | > 100 µM (inactive) | > 100 µM (inactive) | > 100 µM (inactive) |  |  |  |  |  |
| C=CCC1(CN(C)C)CC/C(=C\c2cc(OC)c(OC)c(OC)c2)C1=O (stereo not given) | 40.2 µM (inactive) | 25.8 µM (inactive) | 18.6 µM (inactive) | 12.2 µM (inactive) | 17.5 µM (inactive) | 6.81 µM (inactive) | 90.6 µM (inactive) | 20.5 µM (inactive) | 20.4 µM (inactive) | 22 µM (inactive) | 27.5 µM (inactive) | 33.1 µM (inactive) | 24 µM (inactive) | 19.2 µM (inactive) | 21.3 µM (inactive) |  |  |  |  |  |
| Cc1[nH]c(=O)nc(N/N=C/c2ccc(Cl)cc2)c1C(=O)Nc1ccc(Cl)cc1 | 27 µM (inactive) | 54.8 µM (inactive) | 18.2 µM (inactive) | > 86.5 µM (inactive) | 7.59 µM (inactive) | > 100 µM (inactive) | 28.8 µM (inactive) | 24.1 µM (inactive) | 22.9 µM (inactive) | > 100 µM (inactive) | 45.5 µM (inactive) | 16.9 µM (inactive) | 8.97 µM (inactive) | 41.8 µM (inactive) | 47.3 µM (inactive) | > 100 µM (inactive) | 9.2 µM (inactive) | 39.4 µM (inactive) | 34.1 µM (inactive) | > 60.1 µM (inactive) |
| N#CC(C#N)=Cc1ccc(CP(=O)(O)O)cc1 | > 100 µM (inactive) | > 100 µM (inactive) | > 100 µM (inactive) | > 100 µM (inactive) | > 100 µM (inactive) | 70.6 µM (inactive) | > 100 µM (inactive) | > 100 µM (inactive) | > 100 µM (inactive) | > 100 µM (inactive) | > 100 µM (inactive) | > 100 µM (inactive) | > 100 µM (inactive) | > 100 µM (inactive) | > 100 µM (inactive) |  |  |  |  |  |
